Results on 17 molecules are retold here after PMC12415923.

The nature of the first data set: Two-fold Williamson etherification: BINOL bis(chloroethoxyethyl ether) (Me/H/iPr-6_2) + BINOL bisphenol (Me/H/iPr-2), 1:1, Cs2CO3 (3.2 equiv); ring closure = phenoxide O-alkylation by alkyl chloride. Particulars: the molecule shown is the open-chain precursor; 42-membered ring; MeCN; 9.0 mM; 85.0 °C; 6.0 h.
Take `COCOc1c(-c2cc(C(C)C)c(O)c(C(C)C)c2)cc2ccccc2c1-c1c(OCOC)c(-c2cc(C(C)C)c(OCCOCCOc3c(C(C)C)cc(-c4cc5ccccc5c(-c5c(OCOC)c(-c6cc(C(C)C)c(OCCOCCCl)c(C(C)C)c6)cc6ccccc56)c4OCOC)cc3C(C)C)c(C(C)C)c2)cc2ccccc12` [iPr-M2_2]: the ring closure, isolated yield worked out at 76.5%. Turning to `COCOc1c(-c2ccc(O)cc2)cc2ccccc2c1-c1c(OCOC)c(-c2ccc(OCCOCCOc3ccc(-c4cc5ccccc5c(-c5c(OCOC)c(-c6ccc(OCCOCCCl)cc6)cc6ccccc56)c4OCOC)cc3)cc2)cc2ccccc12` [H-M2_2], the ring closure, isolated yield was 77.8%. On the same count and under the same terms, in the case of `COCOc1c(-c2cc(C)c(O)c(C)c2)cc2ccccc2c1-c1c(OCOC)c(-c2cc(C)c(OCCOCCOc3c(C)cc(-c4cc5ccccc5c(-c5c(OCOC)c(-c6cc(C)c(OCCOCCCl)c(C)c6)cc6ccccc56)c4OCOC)cc3C)c(C)c2)cc2ccccc12` [Me-M2_2] it was 59.4%; in that of `COCOc1c(-c2ccc(OCCOCCCl)cc2)cc2ccccc2c1-c1c(OCOC)c(-c2ccc(OCCOCCOc3c(C(C)C)cc(-c4cc5ccccc5c(-c5c(OCOC)c(-c6cc(C(C)C)c(O)c(C(C)C)c6)cc6ccccc56)c4OCOC)cc3C(C)C)cc2)cc2ccccc12` [(R,S)-HiPr-M2_2 ((R)-H unit, (S)-iPr unit)], 48.9%; in that of `COCOc1c(-c2ccc(OCCOCCCl)cc2)cc2ccccc2c1-c1c(OCOC)c(-c2ccc(OCCOCCOc3c(C(C)C)cc(-c4cc5ccccc5c(-c5c(OCOC)c(-c6cc(C(C)C)c(O)c(C(C)C)c6)cc6ccccc56)c4OCOC)cc3C(C)C)cc2)cc2ccccc12` [(S,S)-HiPr-M2_2], 72.7%.

A further data set can be described thus: Two-fold Williamson etherification: 3,3'-bis(4-hydroxyaryl)-BINOL-MOM diol (Me/H/iPr-2) + oligoethylene glycol bistosylate (1 equiv), Cs2CO3 (ca. 2-2.5 equiv); ring closure = phenoxide O-alkylation by tosylate. Particulars: the molecule shown is the open-chain precursor; 30-membered ring; MeCN; 1.0 mM; 85.0 °C.
With `COCOc1c(-c2ccc(O)cc2)cc2ccccc2c1-c1c(OCOC)c(-c2ccc(OCCOCCOCCOCCOCCOS(=O)(=O)c3ccc(C)cc3)cc2)cc2ccccc12` [H-M1_5], the ring closure, isolated yield worked out at 11%. Turning to `COCOc1c(-c2cc(C)c(O)c(C)c2)cc2ccccc2c1-c1c(OCOC)c(-c2cc(C)c(OCCOCCOCCOCCOCCOS(=O)(=O)c3ccc(C)cc3)c(C)c2)cc2ccccc12` [Me-M1_5], the ring closure, isolated yield amounted to 21.1%.

Consider `COCOc1c(-c2cc(C(C)C)c(O)c(C(C)C)c2)cc2ccccc2c1-c1c(OCOC)c(-c2cc(C(C)C)c(OCCOCCOCCOCCOCCOS(=O)(=O)c3ccc(C)cc3)c(C(C)C)c2)cc2ccccc12` [iPr-M1_5], for which the ring closure, isolated yield was 19.6%.

The same data set, now with this note: the molecule shown is the open-chain precursor; 33-membered ring; MeCN; 1.0 mM; 85.0 °C.
Take `COCOc1c(-c2cc(C)c(O)c(C)c2)cc2ccccc2c1-c1c(OCOC)c(-c2cc(C)c(OCCOCCOCCOCCOCCOCCOS(=O)(=O)c3ccc(C)cc3)c(C)c2)cc2ccccc12` [Me-M1_6]: the ring closure, isolated yield came out at 53.7%. As for `COCOc1c(-c2ccc(O)cc2)cc2ccccc2c1-c1c(OCOC)c(-c2ccc(OCCOCCOCCOCCOCCOCCOS(=O)(=O)c3ccc(C)cc3)cc2)cc2ccccc12` [H-M1_6], the ring closure, isolated yield amounted to 29.7%. Still for that read-out and setting: in the case of `COCOc1c(-c2cc(C(C)C)c(O)c(C(C)C)c2)cc2ccccc2c1-c1c(OCOC)c(-c2cc(C(C)C)c(OCCOCCOCCOCCOCCOCCOS(=O)(=O)c3ccc(C)cc3)c(C(C)C)c2)cc2ccccc12` [iPr-M1_6] it was 41.2%.

Staying with this data set, now noted: the molecule shown is the open-chain precursor; 36-membered ring; MeCN; 1.0 mM; 85.0 °C.
`COCOc1c(-c2cc(C)c(O)c(C)c2)cc2ccccc2c1-c1c(OCOC)c(-c2cc(C)c(OCCOCCOCCOCCOCCOCCOCCOS(=O)(=O)c3ccc(C)cc3)c(C)c2)cc2ccccc12` [Me-M1_7]: the ring closure, isolated yield amounted to 75%.

As to `COCOc1c(-c2cc(C(C)C)c(O)c(C(C)C)c2)cc2ccccc2c1-c1c(OCOC)c(-c2cc(C(C)C)c(OCCOCCOCCOCCOCCOCCOCCOS(=O)(=O)c3ccc(C)cc3)c(C(C)C)c2)cc2ccccc12` [iPr-M1_7], the ring closure, isolated yield was determined as 45.5%. `COCOc1c(-c2ccc(O)cc2)cc2ccccc2c1-c1c(OCOC)c(-c2ccc(OCCOCCOCCOCCOCCOCCOCCOS(=O)(=O)c3ccc(C)cc3)cc2)cc2ccccc12` [H-M1_7]: the ring closure, isolated yield amounted to 32.1%.

The data set is the same for the next values; noted with them: the molecule shown is the open-chain precursor; 39-membered ring; MeCN; 1.0 mM; 85.0 °C.
With `COCOc1c(-c2cc(C)c(O)c(C)c2)cc2ccccc2c1-c1c(OCOC)c(-c2cc(C)c(OCCOCCOCCOCCOCCOCCOCCOCCOS(=O)(=O)c3ccc(C)cc3)c(C)c2)cc2ccccc12` [Me-M1_8], the ring closure, isolated yield amounted to 38.2%. Same read-out and setting: in the case of `COCOc1c(-c2ccc(O)cc2)cc2ccccc2c1-c1c(OCOC)c(-c2ccc(OCCOCCOCCOCCOCCOCCOCCOCCOS(=O)(=O)c3ccc(C)cc3)cc2)cc2ccccc12` [H-M1_8] it was 40.3%; in that of `COCOc1c(-c2cc(C(C)C)c(O)c(C(C)C)c2)cc2ccccc2c1-c1c(OCOC)c(-c2cc(C(C)C)c(OCCOCCOCCOCCOCCOCCOCCOCCOS(=O)(=O)c3ccc(C)cc3)c(C(C)C)c2)cc2ccccc12` [iPr-M1_8], 53.3%.
